Laboratory results taken from EP0838225A2, “Aqueous local anesthetic solution” (Hiji, Yasutake, priority 1996, dated 1998).

Key:
[1] = Absorbance at 620 nm and pH of solutions over time after stirring (Experimental Example 2); format: physicochemical; conditions: N=4; for pH: average; for absorbance at 620 nm: mean±S.E.
Method: The absorbance at wavelength 620 nm [OD(620 nm)] and pH of 0.4% dibucaine solution were determined using UV-visible recording spectrophotometer (UV-2100, Shimadzu Corporation). The solution was stirred, and OD (620 nm) and pH were determined at 5 min, 24 hr, 48 hr and 72 hr later.
OD (620 nm) and pH of the inclusion compound solution were determined in the same manner as above. The solution was stirred, and OD (620 nm) and pH were determined.
In the same manner as above, OD (620 nm) and pH of 1.0% tetracaine solution and an inclusion compound solution prepared by adding hydroxypropyl-β-cyclodextrin having an equimolar concentration to 1.0% tetracaine solution were determined. The solutions were stirred, and OD (620 nm) and pH were determined.
In the same manner as above, OD (620 nm) and pH of 0.5% bupivacaine solution and an inclusion compound solution prepared by adding α-cyclodextrin having an equimolar concentration to 0.5% bupivacaine solution were determined. The solutions were stirred, and OD (620 nm) and pH were determined.
The solutions were stirred, and OD (620 nm) and pH were determined.

[2] = Turbidity and clearness of local anesthetic solutions from absorbance at 620 nm (Experimental Example 1); format: physicochemical; conditions: for OD (620 nm): absorbance at wavelength of 620 nm, CD added at equimolar concentration, pH as in label; for clearness (%) / turbidity (%): calculated from absorbance at 620 nm
Method: The turbidity and clearness of each inclusion compound solution were calculated from the absorbances thus obtained. […] In the same manner as above, OD (620 nm) was determined with respect to the obtained inclusion compound solution of each local anesthetic in cyclodextrin or a derivative thereof, and solutions of each local anesthetic. The turbidity and clearness of each inclusion compound solution were calculated from the absorbances thus obtained.

[3] = tested on: abdominal giant nerve bundle of crayfish; experiment: Anesthetic concentration versus action potential disappearance and recovery time (Experimental Example 7); format: cell-based, crayfish (Procambarus clarkii)
Excerpt: A local anesthetic effect is known to be stronger in alkaline range where pH value is greater.
In addition, the relationship between dibucaine concentration and neuroaction potential recovery time was examined at pH 7.4.

mice = experiment: in vivo; conditions: mouse, sc, 40 mg/kg
Method: (§1) While local anesthetics are known to show inhibitory action on the central nerve cells at high concentrations, they show stimulating action at low concentrations. […] That is, 0.5 %dibucaine dissolved in physiological saline was subcutaneously injected into the back of 11 mice by 0.3 ml (40 mg/kg body weight), which were compared with 11 mice that underwent subcutaneous injection of a solution containing 0.5% dibucaine and α-cyclodextrin having an equimolar concentration, by 0.3 ml (40 mg/kg body weight).

in vivo = conditions: mouse, sc, 40 mg/kg
Method: as §1

Row | SMILES | pH ([1]; 5 min later) | absorbance at 620 nm ([1]; 5 min later) | pH ([1]; 24 hr later) | absorbance at 620 nm ([1]; 24 hr later) | pH ([1]; 48 hr later) | absorbance at 620 nm ([1]; 48 hr later) | pH ([1]; 72 hr later) | absorbance at 620 nm ([1]; 72 hr later) | pH ([1]; initial) | absorbance at 620 nm ([1]; initial) | OD (620 nm) [2] | clearness (%) [2] [%] | turbidity (%) [2] [%] | action potential disappearance time (expression of anesthetic action) ([3]; 0.4% lidocaine, pH 7.5) [min] | action potential disappearance time (expression of anesthetic action) ([3]; 2% lidocaine, pH 6.5) [min] | dibucaine concentration at which action potential disappeared and recovered ([3]; pH 7.4) | time to death from the injection (mice) | mortality (in vivo) [%]
1 | CCCCNc1ccc(C(=O)OCCN(C)C)cc1 [tetracaine] | 7.12 | 0.517±0.024 | 7.04 | 0.411±0.024 | 7.05 | 0.386±0.015 | 7.05 | 0.301±0.025 | 5.49 | 0.000 | 2.732 | 0 | 100 |  |  |  |  | 
2 | CCCCN1CCCCC1C(=O)Nc1c(C)cccc1C (stereo not shown) [bupivacaine] | 7.20 | 0.087±0.015 | 6.89 | 0.659±0.084 | 6.77 | 0.247±0.061 |  |  | 5.44 | 0.000 | 2.108 | 0 | 100 |  |  |  |  | 
3 | CCN(CC)CC(=O)Nc1c(C)cccc1C [lidocaine] | 7.09 | 1.045±0.242 | 7.05 | 0.717±0.152 | 7.10 | 0.382±0.044 | 7.12 | 0.595±0.086 | 4.59 | 0.006 |  |  |  | 2 | 80 |  |  | 
4 | CCCCOc1cc(C(=O)NCCN(CC)CC)c2ccccc2n1 [dibucaine] | 6.85 | 1.528±0.087 | 6.76 | 1.456±0.079 | 6.73 | 1.385±0.042 | 6.75 | 1.412±0.054 | 6.19 | 0.000 | 2.015 | 0 | 100 |  |  | 0.008%-0.05% | about 20 min | 91
